Laboratory results from PubChem BioAssay (NCI).
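Briefly, cells in 96-well plates were exposed to five compound concentrations for 48 h, and endpoints were estimated by linear interpolation. GI50 marks 50% less growth. TGI is the concentration that stops growth completely.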

What was measured:
Assay in all cases: NCI tumour cell line growth inhibition, 48 h
DU-145 prostate = tested on: DU-145 prostate
KM12 colon = tested on: KM12 colon
MDA-MB-231 breast = tested on: MDA-MB-231 breast
NCI-H522 lung = tested on: NCI-H522 lung
PC-3 prostate = tested on: PC-3 prostate
RXF 393 renal = tested on: RXF 393 renal
SF-295 CNS = tested on: SF-295 CNS
A498 renal = tested on: A498 renal
HCT-116 colon = tested on: HCT-116 colon
HT29 colon = tested on: HT29 colon

Row | SMILES | GI50 (DU-145 prostate) [µM] | TGI (DU-145 prostate) [µM] | GI50 (KM12 colon) [µM] | TGI (KM12 colon) [µM] | GI50 (MDA-MB-231 breast) [µM] | TGI (MDA-MB-231 breast) [µM] | GI50 (NCI-H522 lung) [µM] | TGI (NCI-H522 lung) [µM] | GI50 (PC-3 prostate) [µM] | TGI (PC-3 prostate) [µM] | GI50 (RXF 393 renal) [µM] | TGI (RXF 393 renal) [µM] | GI50 (SF-295 CNS) [µM] | TGI (SF-295 CNS) [µM] | GI50 (A498 renal) [µM] | TGI (A498 renal) [µM] | GI50 (HCT-116 colon) [µM] | TGI (HCT-116 colon) [µM] | GI50 (HT29 colon) [µM] | TGI (HT29 colon) [µM]
1 | CC1=C(C(=O)Nc2ccc(Cl)c(Cl)c2)C(c2cccc(Oc3ccccc3)c2)NC(=O)N1 (stereo not given) | 6.5 | 33.3 | 8.72 | 19.7 | 6.15 | 16.3 | 4.47 | 26 | 16.3 | > 50 | 9.61 | 26.5 | 5.57 | 16.6 |  |  |  |  |  | 
2 | O=C(Nc1ccc(F)cc1)c1cc(S(=O)(=O)Nc2nc3ccccc3o2)c(SCc2ccccc2)cc1Cl | 19.2 | 35.4 | 17.5 | 33.9 | 14.5 | 29.5 |  |  | 24.4 | 53.5 | 12.8 | 30.2 | 15 | 29.2 | 17.2 | 32.5 | 17.9 | 31.7 | 27 | > 100
3 | [N-]=[N+]=Nc1cc(=O)[nH]nc1-c1ccccc1 |  | > 100 |  | > 100 |  | > 100 |  | > 100 |  | > 100 |  | > 100 |  | > 100 |  | > 100 |  | > 100 |  | > 100
4 | N#CC1=C(N)Oc2cc(O)ccc2C1c1cccc2ccccc12 (stereo not given) | 12.1 | 29.7 | 6.68 | > 100 | 11.8 | 30 | 6.08 | 19.7 | 5.21 | 29.2 |  |  | 7.28 | 25.6 | 5.25 | 22.7 | 6.52 | 25.7 | 8.89 | 27
5 | Cc1cccc(C)c1NC(=O)C(=O)C(C(=O)c1ccccc1-c1ccccc1)C1OC(=O)c2ccccc21 (stereo not given) |  |  |  | 48.9 |  |  |  | 24.9 |  |  |  | 28.4 |  | > 100 |  | 48.9 |  | 27.8 |  | > 100
6 | COc1ccc(-n2c(C)cc(-c3ccccc3)c2C)cc1 | 4.66 | 22.3 | 2.85 | 35.3 | 1.56 | 3.66 | 1.48 | 4.68 | 2.22 | > 100 | 1.7 | 5.31 | 2.2 | 7.58 | 0.637 | 9 | 2.11 | 16.1 | 1.89 | 7.23
7 | CCOC(=O)/C=C(/C)Sc1cc(O)c2ccccc2c1O | 1.86 | 3.44 | 12.9 | 26.8 | 2.67 | 15.3 | 1.73 | 4.66 | 4.59 | 22.8 | 2.28 | 6.34 | 12.4 | 26.4 | 22.8 | 56.3 | 2.05 | 4.95 | 19.2 | 48.4
8 | COc1ccc(-c2coc3c4c(ccc3c2=O)OCO4)cc1OC |  | > 100 |  | > 100 |  | > 100 |  | > 100 |  | > 100 |  |  |  | > 100 |  | > 100 |  | > 100 |  | > 100
9 | O=C(CSC1CCc2ccccc21)N/N=C/c1ccccc1O (stereo not given) | 6.09 | > 100 | 3.73 | 23.7 | 3.98 | 39.6 | 4.98 | 26.4 | 3.89 | 75.8 | 5.27 | 61.3 | 6.84 | > 100 | 14.7 | 44 | 5.01 | 65.6 | 18.3 | 52.6
10 | COc1cc(C=O)c(-c2cc(OC)c(OC)cc2C=O)cc1OC |  |  |  | > 100 |  |  |  | > 100 |  |  |  | 86.3 |  | > 100 |  | > 100 |  | > 100 |  | > 100
11 | N#CC(C(=O)C(=O)Nc1ccc(Cl)cc1)c1ccccc1 (stereo not given) |  |  |  | > 100 |  |  |  |  |  |  |  | > 100 |  | > 100 |  | > 100 |  | > 100 |  | > 100
12 | S=c1[nH]c(=S)c2nnn(-c3ccccc3)c2[nH]1 |  |  |  | > 100 |  |  |  | > 100 |  |  |  | > 100 |  |  |  |  |  | 4.49 |  | > 100
13 | Cc1nc([N+](=O)[O-])cn1CC(=N)N |  |  |  |  |  |  |  |  |  |  |  | > 100 |  | > 100 |  | > 100 |  | > 100 |  | > 100
14 | Cc1nn(C(=O)c2ccc(Cl)cc2)c2c1C(/C=C/c1ccccc1)SC(N)=N2 (stereo not given) |  | > 10 |  | > 10 |  | > 10 |  | > 10 |  | > 10 |  | > 10 |  | > 10 |  |  |  | > 10 |  | > 10
15 | CCC1CCc2c(c(=O)oc3c2cc(OC)c2cccc(OC)c23)C1 (stereo not given) |  |  |  | > 100 |  |  |  | > 100 |  |  |  | 89.9 |  | > 100 |  | > 100 |  | > 100 |  | > 100
16 | COc1cc2c(OC)cc1CSCc1sc(C)c(c1Br)CSC2 |  |  |  | > 100 |  |  |  |  |  |  |  | > 100 |  | > 100 |  | > 100 |  | > 100 |  | > 100
17 | COc1cc2c(c(OC)c1OC)-c1ncc3cc4c(cc3c1C2)OCO4 | 23.2 | > 100 | 18.6 | 80.1 | 13.8 | 88.8 | 18.9 | 45.9 | 34.7 | > 100 | 24.2 | 83.8 | 15.6 | 39.8 |  |  | 18.8 | 48.3 |  | 
18 | Cc1cc(NS(=O)(=O)c2ccc(Nc3c4ccccc4nc4c(C(=O)N5CCN(CCO)CC5)ccc(Cl)c34)cc2)no1 |  |  |  | > 100 |  |  |  |  |  |  |  | > 100 |  | > 100 |  | > 100 |  | > 100 |  | > 100
19 | CCCN1CN(C(C(=O)N[C@@H]2C(=O)N3C2SC(C)(C)C3C(=O)O)c2ccc(O)cc2)CSC1=S (stereo not given in full) |  |  |  | > 100 |  |  |  | 83.6 |  |  |  |  |  | > 100 |  | > 100 |  | > 100 |  | > 100
20 | Cc1ccc(C)c(N=C2NC(=O)C(CC(=O)Nc3ccc(Cl)cc3Cl)S2)c1 (stereo not given) |  |  |  | > 100 |  |  |  | 56.5 |  |  |  | > 100 |  | > 100 |  | 96.2 |  |  |  | > 100
